Data as given in patent US20240011041A1, “PHAGE COMPOSITIONS FOR P[…]-CAS SYSTEMS AND METHODS OF USE THEREOF” (priority 2020, published 2024).
Where two headings read alike, the source gives them in different places.

Tested on: Pseudomonas aeruginosa isolates b1121, b2631, b3144
Assay: Tobramycin MIC of the challenge isolates
Assay type: cell-based
Conditions: read-out: TOB MIC

For `NC[C@H]1O[C@H](O[C@H]2[C@H](O)[C@@H](O[C@H]3O[C@H](CO)[C@@H](O)[C@H](N)[C@H]3O)[C@H](N)C[C@@H]2N)[C@H](N)C[C@@H]1O` [TOB, tobramycin], the MIC (isolate b1121, Respiratory) was 0.5 mg/L, the MIC (isolate b2631, CF isolate) was 0.5 mg/L and the MIC (isolate b3144, CF isolate) was 2 mg/L.
